What was measured:
[1] = target: T1, MBP-TtProDH EE (apo-EE, reconstituted apo-EE) (Thermus thermophilus, UniProt Q72IB8, F10E/L12E, form not given); test: flavin fluorescence quenching titration; type: binding; conditions: 50 mM sodium phosphate, pH 7.4
T1 construct: gene TT_C1214; N-terminal MBP fusion kept; variant EE (F10E/L12E); E. coli BSV11 riboflavin auxotroph, apo form

[2] = target: T1, MBP-TtProDH EE (apo-EE, reconstituted apo-EE); test: flavin fluorescence quenching titration; conditions: very weak binding, data not shown; 200 nM riboflavin; 50 mM sodium phosphate, pH 7.4

T1 sequence (Q72IB8 whole entry F10E/L12E, form open, the tested form may be a part): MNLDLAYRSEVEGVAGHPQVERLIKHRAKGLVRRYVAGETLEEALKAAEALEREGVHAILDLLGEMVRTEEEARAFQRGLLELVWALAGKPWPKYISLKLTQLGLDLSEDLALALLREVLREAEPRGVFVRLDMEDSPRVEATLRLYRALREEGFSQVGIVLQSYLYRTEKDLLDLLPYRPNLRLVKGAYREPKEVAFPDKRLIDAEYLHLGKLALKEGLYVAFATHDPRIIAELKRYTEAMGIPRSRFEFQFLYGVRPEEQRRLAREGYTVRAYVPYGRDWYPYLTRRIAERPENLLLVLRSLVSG

Cc1cc2nc3c(=O)[nH]c(=O)nc-3n(C[C@H](O)[C@H](O)[C@H](O)COP(=O)(O)O)c2cc1C [FMN]
Kd ([1]; apoenzyme titrated into 200 nM FMN): 19.5 ± 0.8 nM

Cc1cc2nc3c(=O)[nH]c(=O)nc-3n(C[C@H](O)[C@H](O)[C@H](O)CO)c2cc1C [riboflavin]
flavin fluorescence quenching titration [2]: riboflavin shows a very weak binding to the apoenzyme (data not shown)

Cc1cc2nc3c(=O)[nH]c(=O)nc-3n(C[C@H](O)[C@H](O)[C@H](O)COP(=O)(O)OP(=O)(O)OC[C@H]3O[C@@H](n4cnc5c(N)ncnc54)[C@H](O)[C@@H]3O)c2cc1C [FAD]
Kd ([1]; apoenzyme titrated into 200 nM FAD): 18 ± 0.5 nM

From publication PMC5335563, “Proline dehydrogenase from Thermus thermophilus does not discriminate between FAD and FMN as cofactor” (Scientific Reports, 2017)
